Key:
Format in all cases: in vivo
[1] = tested on: Cucurbit Leaf Beetle (Aulacophora femoralis); assay: Cucurbit leaf beetle (Aulacophora femoralis) cucumber leaf dip test; details: active compound concentration 20 ppm; after 7 days
Method in brief: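 Cucumber leaves dipped in compound formulated with DMF and polyoxyethylene alkyl phenyl ether, diluted in water, with ammonium salt or ammonium salt plus penetration enhancer at 1000 ppm added if necessary; dried leaves placed on sterilized soil with five second-instar larvae. Kept at 25° C; larval mortality counted after 7 days.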

[2] = tested on: Tobacco Cutworm (Spodoptera litura) Larvae; assay: Tobacco cutworm (Spodoptera litura) larvae, sweet potato leaf dip test; details: dead larvae after 7 days
Protocol: (§1) Unless not mentioned otherwise, the test solutions were prepared as follows:
(§2) Solvent: 3 parts by weight Dimethylformamide
(§3) Emulsifier: 1 part by weight Polyoxyethylene alkyl phenyl ether
(§4) In order to make an appropriate formulation of an active compound, 1 part by weight of the active compound is mixed with the above mentioned amount of solvent and emulsifier and the mixture is diluted with water to a prescribed concentration. Ammonium salt or ammonium salt and penetration enhancer in a dosage of 1000 ppm are added to the desired concentration if necessary.
Leaves of sweet potato were immersed in the test solution at the appropriate concentration, and the leaves were dried in air. The leaves were then placed in a petri dish having a diameter of 9 cm, and ten Spodoptera litura at third instar larvae were released therein. The petri dishes were placed in a temperature-controlled chamber at 25° C. After 2 days and 4 days more sweet potato leaves were added. After 7 days, the number of dead larvae was counted to calculate the insecticidal activity. An insecticidal activity of 100% means that all larvae were killed, whereas an insecticidal activity of 0% means that no larva was killed. In the current test, the results of two petri dishes for each treatment were averaged.

[3] = tested on: Two-Spotted Spider Mite (Tetranychus urticae); assay: Two-spotted spider mite (Tetranychus urticae) spray test on kidney bean; details: after 7 days
Method in brief: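 Kidney bean plants at the two-leaf stage carried 50-100 adult mites and were sprayed one day later with compound in DMF/polyoxyethylene alkyl phenyl ether diluted in water. Ammonium salt and penetration enhancer at 1000 ppm were added if needed. Acaricidal activity (% mites killed) was scored after 7 days in a greenhouse.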

Thrips palmi = Thrips palmi spray test (THRIPL); details: active compound concentration 20 ppm; after 6 days
Protocol: as §1, §2, §3, §4
The compound solutions are sprayed to a cucumber seedling (Cucumis sativus). After drying, the treated plant is placed in a plastic stand. About 100 thrips-eggs (Thrips palmi) on a piece of filter paper are attached to the plant and covered with a cage to keep 100% humidity. The plant is kept in a room at 23° C. After 6 days activity in % is evaluated by feeding damage degree. An insecticidal activity of 100 means that there was no feeding damage, whereas an insecticidal activity of 0% means that there is no difference to the untreated control.

[4] = tested on: Larvae of Spodoptera litura; assay: Larvae of Spodoptera litura, method using artificial feeds; details: active compound concentration 20 ppm; artificial feed; after 7 days
Method in brief: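 Compound formulated in dimethylformamide with polyoxyethylene alkyl phenyl ether emulsifier, water-diluted and poured onto artificial diet. Five 3rd-instar Spodoptera litura larvae per cup, held at 25° C and 50-60% humidity. Mortality after 7 days expressed as pesticidal ratio.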

[5] = active compound concentration 4 ppm
[6] = active compound concentration 20 ppm

SMILES	insecticidal activity [1] [%]	insecticidal activity [2, 5] [%]	acaricidal activity [3, 5] [%]	insecticidal activity (by feeding damage degree) (Thrips palmi) [%]	insecticidal activity (pesticidal ratio) [4] [%]	insecticidal activity [2, 6] [%]	acaricidal activity [3, 6] [%]
O=C(CC(F)(F)F)NCc1ccc(N2CCC(c3cc(Cl)cc(Cl)c3)(C(F)(F)F)C2O)cc1F (mixture of isomers) [A1-101]	100	80	100	–	–	–	–
O=C(CC(F)(F)F)NCc1ccc(N2CCC(c3cc(Cl)cc(Cl)c3)(C(F)(F)F)C2O)cc1Br (mixture of isomers) [A1-112]	100	100	100	98	–	–	–
CCC(=O)NCc1ccc(N2CCC(c3cc(Cl)c(Cl)c(Cl)c3)(C(F)(F)F)C2O)cc1CC (mixture of isomers) [A1-140]	–	100	98	–	–	–	–
CCC(=O)NCc1ccc(N2CCC(c3cc(C(F)(F)F)cc(C(F)(F)F)c3)(C(F)(F)F)C2O)cc1CC (mixture of isomers) [A1-195]	100	100	100	–	–	–	–
CCC(=O)NC(C)c1ccc(N2CCC(c3cc(Cl)c(Cl)c(Cl)c3)(C(F)(F)F)C2O)cc1 (mixture of isomers) [A2-13]	–	–	–	–	100	100	100
CCC(=O)NCc1ccc(N2CCC(c3cc(F)cc(Cl)c3)(C(F)(F)F)C2O)nc1C(F)(F)F (mixture of isomers) [A3-167]	–	80	–	–	–	–	90
CC(=O)NCc1ccc(N2CCC(c3cc(Cl)c(F)c(Cl)c3F)(C(F)(F)F)C2O)nc1C(F)(F)F (mixture of isomers) [A3-210]	100	100	100	–	–	–	–
O=C(NCc1ccc(N2CCC(c3cc(F)cc(Cl)c3)(C(F)(F)F)C2O)cc1C(F)(F)F)C1CC1 (stereo not shown) [A1-242]	100	100	100	90	–	–	–
CC(=O)NCc1ccc(N2CCC(c3cc(Cl)c(F)c(Cl)c3)(C(F)(F)F)C2O)cc1C(F)(F)F (stereo not shown) [A1-271]	–	100	100	–	–	–	–
CC(=O)NCc1ccc(N2CCC(c3cc(Cl)c(Cl)c(C(F)(F)F)c3)(C(F)(F)F)C2O)cc1C(F)(F)F (stereo not shown) [A1-348]	100	100	–	–	–	–	100
CCC(=O)NCc1ccc(N2CCC(c3cc(Cl)c(Cl)c(C(F)(F)F)c3)(C(F)(F)F)C2O)cc1C(F)(F)F (stereo not shown) [A1-349]	100	100	–	–	–	–	100
O=C(NCc1ccc(N2CCC(c3cc(Cl)c(Cl)c(C(F)(F)F)c3)(C(F)(F)F)C2O)cc1C(F)(F)F)C1CC1 (stereo not shown) [A1-352]	100	100	–	–	–	–	100
CCC(=O)NCc1ccc(N2CCC(c3cc(Cl)c(Cl)c(Cl)c3)(C(F)(F)F)C2O)cc1 (stereo not shown) [A1-384]	100	100	98	90	–	–	–
O=C(NCc1ccc(N2CCC(c3cc(Cl)c(Cl)c(Cl)c3)(C(F)(F)F)C2O)nc1C(F)(F)F)C1CC1 (stereo not shown) [A3-16]	100	–	–	–	100	100	100
O=C(NCc1ccc(N2CCC(c3cc(C(F)(F)F)cc(C(F)(F)F)c3)(C(F)(F)F)C2O)nc1C(F)(F)F)C1CC1 (stereo not shown) [A3-27]	100	–	–	–	100	100	100
CCc1nc(N2CCC(c3cc(Cl)c(Cl)c(Cl)c3)(C(F)(F)F)C2O)ccc1CNC(=O)C1CC1 (stereo not shown) [A3-93]	100	100	–	–	–	–	100
CCC(=O)NCc1ccc(N2CCC(c3cc(Cl)c(Cl)c(Cl)c3)(C(F)(F)F)C2O)nc1Cl (stereo not shown) [A3-101]	100	100	100	98	–	–	–
O=C(NCc1cnc(N2CCC(c3cc(Cl)cc(Cl)c3)(C(F)(F)F)C2O)nc1C(F)(F)F)C1CC1 (stereo not shown) [A4-5]	100	100	100	90	–	–	–
O=C(CC(F)(F)F)NCc1cnc(N2CCC(c3cc(Cl)cc(Cl)c3)(C(F)(F)F)C2O)nc1C(F)(F)F (stereo not shown) [A4-7]	100	100	100	90	–	–	–
CS(=O)(=O)CC(=O)NCc1cnc(N2CCC(c3cc(Cl)cc(Cl)c3)(C(F)(F)F)C2O)nc1C(F)(F)F (stereo not shown) [A4-11]	–	100	100	90	–	–	–
CC(=O)NCc1cnc(N2CCC(c3cc(Cl)c(Cl)c(Cl)c3)(C(F)(F)F)C2O)nc1C(F)(F)F (stereo not shown) [A4-12]	–	100	100	90	–	–	–
CC(=O)NCc1cnc(N2CCC(c3cc(Cl)c(F)c(Cl)c3F)(C(F)(F)F)C2O)nc1C(F)(F)F (stereo not shown) [A4-111]	100	100	100	–	–	–	–
CCC(=O)NCc1cnc(N2CCC(c3cc(Cl)c(F)c(Cl)c3F)(C(F)(F)F)C2O)nc1C(F)(F)F (stereo not shown) [A4-112]	100	100	100	98	–	–	–
CC(=O)NCc1cnc(N2CCC(c3cc(Cl)c(F)c(Cl)c3F)(C(F)(F)F)C2O)cc1C(F)(F)F (stereo not shown) [A5-78]	100	100	100	–	–	–	–
CCC(=O)NCc1cnc(N2CCC(c3cc(Cl)c(F)c(Cl)c3F)(C(F)(F)F)C2O)cc1C(F)(F)F (stereo not shown) [A5-79]	–	100	100	90	–	–	–
O=C(NCc1ccc(N2CCC(c3cc(C(F)(F)F)cc(C(F)(F)F)c3)(C(F)(F)F)C2=O)cc1Cl)C1CC1 (stereo not shown) [B1-27]	–	–	–	–	100	100	–
O=C(NCc1ccc(N2CCC(c3cc(Cl)c(Cl)c(Cl)c3)(C(F)(F)F)C2=O)nc1C(F)(F)F)C1CC1 (stereo not shown) [B3-16]	–	–	–	–	100	100	–
O=C(NCc1ccc(N2CC(c3cc(C(F)(F)F)cc(C(F)(F)F)c3)(C(F)(F)F)CC2=O)nc1Cl)C1CC1 (stereo not shown) [C1-27]	100	–	–	–	100	100	–
CC(NC(=O)C1CC1)c1ccc(N2CC(c3cc(C(F)(F)F)cc(C(F)(F)F)c3)(C(F)(F)F)CC2=O)cc1 (stereo not shown) [C2-27-b]	100	–	–	–	100	100	100
O=C(NCc1ccc(N2CC(c3cc(Cl)c(Cl)c(Cl)c3)(C(F)(F)F)CC2=O)nc1C(F)(F)F)C1CC1 (stereo not shown) [C3-16]	–	–	–	–	100	100	–
